According to patent US7521432B2, “Compositions and methods for identifying agents which regulate chromosomal stability, gene activation and aging” (priority 2000, dated 2009):

What was measured:
human HeLa cell extracts = assay: O-acetyl-ADP ribose utilization by enzymes from human HeLa cell extracts; assay type: in vitro ADME; conditions: HeLa cell extract vs buffer control, time points up to 3 hrs, HPLC
Protocol: P/CAF [^3H]-monoacetylation of H3 peptide. The histone acetyltransferase P/CAF was used to monoacetylate H3 peptide on Lysine 14 (12). P/CAF (0.175 μM) was mixed with [^3H]-acetyl CoA (33.3 μM, 1.88 Ci/mmol) and H3 peptide (175 μM) for 20 min at 25° C. prior to quenching with TFA to 1%. Mono [^3H]-acetylated H3 peptide was separated from unmodified H3 by HPLC analysis as described above. MALDI/ESI Mass Spectrometry Analyses. MALDI mass spectrometry was performed (Oregon State University, Environmental Health Sciences Center) on a custom-built reflector time-of-flight mass spectrometer equipped with a two-stage delayed extraction source. […] Every mass spectrum was recorded as the sum of 20 consecutive spectra, each produced by a single pulse of photons. […] The amount of [^3H]-AcLys14 H3 peptide and [^3H]-O-acetyl ADP ribose was determined by liquid scintillation counting of these species separated on reverse phase HPLC. […] Protein concentrations of supernatants were determined by the method of Bradford. […]
To provide evidence for the existence of human cellular proteins/enzymes that are capable of binding and catalyzing the conversion or decomposition of O-acetyl-ADP ribose, human HeLa cell extracts were generated and the ability of proteins within the extract to catalyze the decomposition of O-acetyl-ADP ribose was assessed. […]

[1] = tested on: Asterina miniata immature oocytes; assay: Microinjection into immature starfish oocytes, oocyte maturation (GVBD, polar body extrusion); assay type: cell-based; conditions: for effect on oocyte maturation as assessed by GVBD and polar body extrusion: microinjected, compared to control injections, text summary
Protocol: Asterina miniata gametes were collected and microinjections were performed as described previously (Carroll et al., 1999). Briefly, quantitative microinjection of Asterina miniata oocytes was performed at 16° C., using mercury-filled micropipets (Hiramoto, 1962; Kiehart, 1982; and see the information available at http://egg/uchc.edu/injection), allowing injection of precisely calibrated picoliter volumes into the oocytes and blastomeres. Injection volumes were 3% of the total cellular volume (for oocytes, 93 pL and for blastomeres, 47 pL). Buffer alone, purified O-acetylated ADP ribose or recombinant protein was injected into immature oocytes or one blastomere of a two cell stage embryo to a final concentration in the cytoplasm as indicated in the figure legends and Tables. 1-methyl adenine was from Sigma and was used at 10 μM.
Micro-injection assays were performed in starfish and sea urchin ooctyes. Historically echinoderm development has been a biochemically tractable and well-defined system to assess biological function of pruteins, bio-active compounds and for detailed analyses of the cell cycle. This system is attractive for its amenability to quantitative microinjection assays, cell cycle analyses, biochemical fractionation and microscopic imaging of eggs and early embryos. Initially, we hypothesized that if O-acetyl-ADP ribose produced by SIR2 was involved in SIR2's gene silencing ability, then micro-injection of O-acetyl-ADP ribose into a maturing oocyte should give rise to a phenotypic effect on the developing animal, perhaps through perturbations in normal gene expression patterns. Immature oocytes were micro-injected with HPLC-purified O-acetyl-ADP ribose or with a buffer control. The oocytes were allowed to mature by the addition of 1-methyladenine and assessed for developmental alterations.
Asterina miniata immature oocytes were microinjected with the amounts of O-acetyl ADP ribose in PBS. The maturation hormone 1-methyladenine was added (10 μM) 25-30 minutes post-injection. Oocytes were monitored for GVBD and polar body extrusion. […] The number of oocytes per treatment is given. Combined results of 3 separate experiments (3 batches of O-acetyl ADP ribose).
Asterina miniata immature oocytes were microinjected with the given enzymes in PBS. The maturation hormone 1-methyladenine was added (10 μM) 25-30 minutes post-injection. Oocytes were monitored for GVBD and polar body extrusion. […] The number of oocytes per treatment (n) is given. Data are from four separate batches of oocytes. All oocytes for a given treatment responded in the same way unless indicated otherwise (e.g. see 200 nM HST2 injection).

[2] = 0.2 mg/ml (0.32 mM) in cytoplasm
[3] = 0.5 mg/ml (0.8 mM) in cytoplasm
[4] = 1.0 mg/ml (1.6 mM) in cytoplasm

Substance: O-acetyl-ADP ribose
- conversion/consumption of O-acetyl-ADP ribose by cell extract (human HeLa cell extracts): convert O-acetyl-ADP ribose to a distinct, but as yet unidentified species
- conversion/consumption of O-acetyl-ADP ribose by cell extract (human HeLa cell extracts; listed as O-acetyl ADP ribose): capable of consuming O-acetyl ADP ribose
- no effect (oocytes) ([1]; 0.01 mg/ml (0.016 mM) in cytoplasm): 8/8
- no effect (oocytes) ([1]; 0.1 mg/ml (0.16 mM) in cytoplasm): 16/16
- compete block (oocytes) [1, 2]: 1/8
- no effect (oocytes) [1, 2]: 7/8
- 1-2 hr delay (oocytes) [1, 3]: 10/16
- compete block (oocytes) [1, 3]: 6/16
- 1-2 hr delay (oocytes) [1, 4]: 1/23
- compete block (oocytes) [1, 4]: 22/23
- compete block (oocytes) ([1]; 1.7 mg/ml (3 mM) in cytoplasm): 6/6
- immediate death (oocytes) ([1]; 3.0 mg/ml (5 mM) in cytoplasm): 1/3
- no effect (oocytes) ([1]; 3.0 mg/ml (5 mM) in cytoplasm, 1-methyladenine 10 μM): 2/3
- immediate death (oocytes) ([1]; 10 mg/ml (16 mM) in cytoplasm): 2/2
- effect on apoptosis of unfertilized oocyte ([1]; apoptosis normally occurs after ~24 hrs if not fertilized): delayed apoptosis
- GV breakdown, polar body extrusion and apoptosis of injected oocytes ([1]; final 1 mg/mL, images 3 and 24 hr post hormone treatment, FIG. 9): did not undergo GV breakdown or polar body extrusion, nor did they undergo apoptosis
- effect on oocyte maturation as assessed by GVBD and polar body extrusion [1]: a delay in germinal vesicle breakdown (GVBD), or a complete block in oocyte maturation
- effect on oocyte maturation as assessed by GVBD and polar body extrusion ([1]; listed as O-acetyl ADP ribose): block oocyte maturation
- concentration below which no effect was observed (dose-dependency) ([1]; oocyte maturation): below 0.32 mM
